The source made the active and inactive calls.
How the values were obtained:
[1] = target: T1, Short transient receptor potential channel 4 (Mus musculus, UniProt Q9QUQ5); assay: calcium entry via TRPC4 opening agents – cell-based, HEK293 TRPC4/mu-opioid, Fluo-4 calcium, dose response (AID 434937); type: functional
T1 sequence (Q9QUQ5 whole entry): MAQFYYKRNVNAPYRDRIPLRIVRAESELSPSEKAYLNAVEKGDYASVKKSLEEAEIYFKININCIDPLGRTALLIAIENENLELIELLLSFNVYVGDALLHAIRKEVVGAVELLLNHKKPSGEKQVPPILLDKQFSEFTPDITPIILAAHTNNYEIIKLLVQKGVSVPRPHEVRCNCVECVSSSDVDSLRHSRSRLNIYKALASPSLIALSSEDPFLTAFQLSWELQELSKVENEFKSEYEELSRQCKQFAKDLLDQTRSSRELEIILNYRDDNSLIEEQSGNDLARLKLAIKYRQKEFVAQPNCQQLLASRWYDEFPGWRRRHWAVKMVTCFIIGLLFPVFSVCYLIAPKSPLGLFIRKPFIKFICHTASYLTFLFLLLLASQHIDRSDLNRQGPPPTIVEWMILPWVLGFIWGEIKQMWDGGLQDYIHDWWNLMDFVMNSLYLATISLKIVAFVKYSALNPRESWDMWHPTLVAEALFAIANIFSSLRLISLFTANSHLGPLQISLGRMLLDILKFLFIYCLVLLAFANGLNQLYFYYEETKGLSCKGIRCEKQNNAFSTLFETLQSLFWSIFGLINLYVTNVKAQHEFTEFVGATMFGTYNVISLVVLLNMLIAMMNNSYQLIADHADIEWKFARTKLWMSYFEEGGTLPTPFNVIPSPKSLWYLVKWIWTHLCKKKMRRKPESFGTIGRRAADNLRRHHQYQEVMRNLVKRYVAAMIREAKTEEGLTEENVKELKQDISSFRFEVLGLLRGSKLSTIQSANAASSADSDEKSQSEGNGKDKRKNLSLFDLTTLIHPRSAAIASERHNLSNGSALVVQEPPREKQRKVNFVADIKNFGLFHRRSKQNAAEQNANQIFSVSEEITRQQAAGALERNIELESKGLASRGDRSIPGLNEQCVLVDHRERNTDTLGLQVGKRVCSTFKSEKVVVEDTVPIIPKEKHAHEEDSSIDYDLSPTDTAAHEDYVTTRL

[2] = target: Mu-type opioid receptor (Homo sapiens, UniProt P35372); assay: (§1) Counterscreen for agonists of heterodimerization of the mu 1 (OPRM1) and delta 1 (OPRD1) opioid receptors: Luminescence-based cell-based high throughput dose response assay to identify agonists of OPRM1 homodimerization.; type: functional
[3] = target: 5-hydroxytryptamine receptor 5A (Homo sapiens, UniProt P47898); assay: Counterscreen for agonists of OPRM1-OPRD1 heterodimerization: luminescence-based cell-based high throughput dose response assay to identify agonists of 5-hydroxytryptamine (serotonin) 5A receptor (HTR5A). [Related pubchem assays (depositor defined):AID504326, AID504355, AID504692, AID504904, AID504905]; type: functional
[4] = target: Delta-type opioid receptor (Homo sapiens, UniProt P41143); assay: as §1, with “of OPRD1” for “of OPRM1”, “homodimerization. [Related pubchem assays (depositor defined):AID504326, AID504355, AID504692, AID504904, AID504905]” for “homodimerization.”; type: functional
[5] = target: DNA dC->dU-editing enzyme APOBEC-3G (Homo sapiens, UniProt Q9HC16); type: functional;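 also: Dose-response counterscreen measuring inhibition of APOBEC3G DNA deaminase activity, run while confirming APOBEC3A inhibitors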
[6] = target: DNA dC->dU-editing enzyme APOBEC-3A (Homo sapiens, UniProt P31941); assay: Dose Response confirmation of small molecule APOBEC3A DNA Deaminase Inhibitors via a fluorescence-based single-stranded DNA deaminase assay. [Related pubchem assays (depositor defined):AID493011, AID493024]; type: functional
[7] = target: T2, Acyl-homoserine lactone acylase PvdQ (Pseudomonas aeruginosa (strain LESB58), UniProt Q9I194); assay: PvdQ acylase enzyme activity blockers – biochemical, fluorescence, plate reader and imaging, cherry-picks, dose response (AID 493231)
T2 sequence (Q9I194 whole entry): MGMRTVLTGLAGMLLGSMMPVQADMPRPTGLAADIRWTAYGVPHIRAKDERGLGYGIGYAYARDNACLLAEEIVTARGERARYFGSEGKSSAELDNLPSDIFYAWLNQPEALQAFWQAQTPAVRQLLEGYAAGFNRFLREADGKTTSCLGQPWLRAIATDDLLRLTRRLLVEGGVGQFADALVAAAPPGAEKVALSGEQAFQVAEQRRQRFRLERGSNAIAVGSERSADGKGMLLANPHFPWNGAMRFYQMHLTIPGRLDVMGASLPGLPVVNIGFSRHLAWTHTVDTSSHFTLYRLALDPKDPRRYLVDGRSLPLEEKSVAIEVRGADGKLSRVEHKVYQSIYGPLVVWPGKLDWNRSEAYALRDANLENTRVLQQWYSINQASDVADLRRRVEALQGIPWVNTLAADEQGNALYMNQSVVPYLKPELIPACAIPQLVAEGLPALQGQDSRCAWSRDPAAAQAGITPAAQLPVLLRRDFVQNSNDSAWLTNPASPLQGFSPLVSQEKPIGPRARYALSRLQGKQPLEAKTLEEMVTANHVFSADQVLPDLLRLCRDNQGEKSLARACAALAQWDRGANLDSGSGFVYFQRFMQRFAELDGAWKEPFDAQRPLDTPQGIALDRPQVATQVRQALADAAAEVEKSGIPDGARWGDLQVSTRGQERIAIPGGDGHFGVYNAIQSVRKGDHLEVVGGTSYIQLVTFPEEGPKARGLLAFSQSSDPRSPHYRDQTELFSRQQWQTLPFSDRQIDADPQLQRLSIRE

[8] = target: Cytochrome P450 3A4 (Homo sapiens, UniProt P08684);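 also: CYP3A4 tested as one member of a cytochrome P450 panel screen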
[9] = target: Cytochrome P450 2D6 (Homo sapiens, UniProt P10635);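 also: CYP2D6 member of a cytochrome P450 panel assay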
[10] = target: Heat shock protein HSP 90-alpha (Homo sapiens, UniProt P07900); type: functional, organism-based
[11] = target: Cytochrome P450 2C9 (Homo sapiens, UniProt P11712)
[12] = test system: H4; assay: Luminescence Cell-Based Dose Response HTS to Identify Activators of 5'UTR Stem-Loop Driven Prion Protein mRNA Translation in H4 Neuroglioblastoma Cells. [Related pubchem assays: 1829 (Project Summary), 1814 (Primary HTS)]; type: functional; conditions: Homo sapiens
[13] = Luminescence Cell-Based Dose Response HTS to Identify Activators of Luciferase Translation or Activity in H4 […] Cells. [Related pubchem assays: 1829 (Project Summary), 1814 (Primary HTS)]; type: functional
[14] = target: Cytochrome P450 2C19 (Homo sapiens, UniProt P33261); assay: Cytochrome panel assay with activity outcomes. Panel member name: p450-cyp2c19 Compounds with AC50 equal or less than 10 uM are considered active; type: functional; conditions: read-out: AC50
[15] = target: T3, Cytochrome P450 1A2 (Homo sapiens, UniProt P05177);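 also: PubChem cytochrome P450 panel assay, CYP1A2 panel member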
T3 sequence (P05177 whole entry): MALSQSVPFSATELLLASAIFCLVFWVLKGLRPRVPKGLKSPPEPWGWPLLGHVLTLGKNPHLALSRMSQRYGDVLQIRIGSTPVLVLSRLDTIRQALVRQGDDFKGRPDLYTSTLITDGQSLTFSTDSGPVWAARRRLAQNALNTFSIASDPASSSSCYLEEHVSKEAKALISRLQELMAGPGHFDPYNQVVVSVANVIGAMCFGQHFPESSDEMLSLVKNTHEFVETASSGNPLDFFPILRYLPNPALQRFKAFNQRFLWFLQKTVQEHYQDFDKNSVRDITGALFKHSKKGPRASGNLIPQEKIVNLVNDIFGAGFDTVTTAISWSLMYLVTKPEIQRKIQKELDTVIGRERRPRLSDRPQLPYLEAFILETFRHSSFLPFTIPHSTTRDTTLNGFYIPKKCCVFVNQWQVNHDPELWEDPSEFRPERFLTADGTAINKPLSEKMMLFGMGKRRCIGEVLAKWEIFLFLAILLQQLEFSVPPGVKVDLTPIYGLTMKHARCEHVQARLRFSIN

[16] = Luminescence Cell-Based Dose Confirmation HTS to Identify Activators of 5'UTR Stem-Loop Driven Alpha-Synuclein mRNA Translation in H4 Neuroglioblastoma Cells. [Related pubchem assays: 1829 (Project Summary), 1814 (Primary HTS)]; type: functional
[17] = Luminescence Cell-Based Dose Retest to Confirm Inhibitors of Cancer Stem Cells. [Related pubchem assays (depositor defined):AID2717, AID2721]; type: functional; conditions: Homo sapiens
[18] = cells; type: functional
[19] = THP-1 cell cytotoxicity, dose response, cytotoxicity control for non-replicating M. tuberculosis project (AID 489025); type: functional

Chain of DNA dC->dU-editing enzyme APOBEC-3G (Q9HC16 whole entry): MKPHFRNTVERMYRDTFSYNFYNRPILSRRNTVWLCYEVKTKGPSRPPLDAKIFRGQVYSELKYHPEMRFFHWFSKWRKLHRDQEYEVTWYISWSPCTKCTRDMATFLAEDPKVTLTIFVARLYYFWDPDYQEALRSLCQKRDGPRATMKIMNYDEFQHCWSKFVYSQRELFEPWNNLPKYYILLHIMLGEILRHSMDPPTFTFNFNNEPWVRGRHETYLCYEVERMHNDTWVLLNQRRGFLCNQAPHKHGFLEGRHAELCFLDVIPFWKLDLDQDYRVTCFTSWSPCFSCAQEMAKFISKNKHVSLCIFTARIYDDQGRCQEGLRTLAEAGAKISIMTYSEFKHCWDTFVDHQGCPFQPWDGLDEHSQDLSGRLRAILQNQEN
Chain of Cytochrome P450 3A4 (P08684 whole entry): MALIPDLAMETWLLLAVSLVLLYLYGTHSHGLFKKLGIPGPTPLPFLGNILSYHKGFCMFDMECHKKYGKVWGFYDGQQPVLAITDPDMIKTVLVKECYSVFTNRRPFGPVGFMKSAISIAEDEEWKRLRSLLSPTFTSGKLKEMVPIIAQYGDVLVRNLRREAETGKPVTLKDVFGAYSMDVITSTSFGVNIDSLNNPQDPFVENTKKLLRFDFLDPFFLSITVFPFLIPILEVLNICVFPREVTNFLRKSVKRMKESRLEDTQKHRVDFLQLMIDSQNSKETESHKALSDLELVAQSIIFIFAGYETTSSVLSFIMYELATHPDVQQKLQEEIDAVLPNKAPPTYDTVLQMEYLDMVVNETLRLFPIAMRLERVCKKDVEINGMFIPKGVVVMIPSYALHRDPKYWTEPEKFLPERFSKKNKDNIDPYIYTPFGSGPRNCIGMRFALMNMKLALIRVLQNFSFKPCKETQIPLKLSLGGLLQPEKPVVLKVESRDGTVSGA
Chain of DNA dC->dU-editing enzyme APOBEC-3A (P31941 whole entry): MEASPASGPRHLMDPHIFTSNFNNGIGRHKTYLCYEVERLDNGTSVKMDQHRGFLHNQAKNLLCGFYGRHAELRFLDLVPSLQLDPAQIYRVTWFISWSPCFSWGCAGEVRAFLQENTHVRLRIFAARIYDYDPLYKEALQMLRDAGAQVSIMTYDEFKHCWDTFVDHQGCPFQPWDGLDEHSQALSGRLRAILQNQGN
Chain of Cytochrome P450 2C19 (P33261 whole entry): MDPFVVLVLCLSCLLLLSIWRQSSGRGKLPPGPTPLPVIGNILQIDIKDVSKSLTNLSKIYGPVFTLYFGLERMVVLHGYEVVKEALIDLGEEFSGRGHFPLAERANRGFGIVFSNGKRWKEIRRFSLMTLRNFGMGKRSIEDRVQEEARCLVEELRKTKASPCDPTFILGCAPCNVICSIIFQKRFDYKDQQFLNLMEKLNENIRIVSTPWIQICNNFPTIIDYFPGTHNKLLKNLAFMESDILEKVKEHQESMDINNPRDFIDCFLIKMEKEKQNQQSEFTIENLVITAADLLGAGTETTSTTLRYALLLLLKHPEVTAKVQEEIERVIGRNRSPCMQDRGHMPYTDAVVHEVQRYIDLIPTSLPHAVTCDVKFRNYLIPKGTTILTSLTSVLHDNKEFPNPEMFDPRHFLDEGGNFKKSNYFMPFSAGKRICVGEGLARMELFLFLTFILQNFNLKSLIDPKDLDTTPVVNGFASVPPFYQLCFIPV
Chain of 5-hydroxytryptamine receptor 5A (P47898 whole entry): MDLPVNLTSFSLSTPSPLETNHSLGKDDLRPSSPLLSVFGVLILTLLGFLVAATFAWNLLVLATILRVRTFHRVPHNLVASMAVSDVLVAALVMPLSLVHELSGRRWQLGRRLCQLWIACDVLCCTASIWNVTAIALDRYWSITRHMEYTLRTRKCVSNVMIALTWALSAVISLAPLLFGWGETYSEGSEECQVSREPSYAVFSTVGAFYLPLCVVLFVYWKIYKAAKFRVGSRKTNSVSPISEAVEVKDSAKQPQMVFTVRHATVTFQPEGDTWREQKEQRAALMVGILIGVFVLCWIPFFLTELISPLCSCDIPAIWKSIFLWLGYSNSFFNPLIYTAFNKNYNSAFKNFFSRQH
Chain of Delta-type opioid receptor (P41143 whole entry): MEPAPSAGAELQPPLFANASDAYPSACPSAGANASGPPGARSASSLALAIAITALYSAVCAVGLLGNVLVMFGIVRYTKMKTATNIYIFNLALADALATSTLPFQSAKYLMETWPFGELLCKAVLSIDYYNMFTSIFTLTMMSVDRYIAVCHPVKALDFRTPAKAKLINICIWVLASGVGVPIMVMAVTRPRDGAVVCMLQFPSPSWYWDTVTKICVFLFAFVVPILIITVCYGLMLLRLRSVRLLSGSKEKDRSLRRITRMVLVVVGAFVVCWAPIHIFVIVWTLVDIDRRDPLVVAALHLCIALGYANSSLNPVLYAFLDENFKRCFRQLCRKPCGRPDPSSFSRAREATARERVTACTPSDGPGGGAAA
Chain of Mu-type opioid receptor (P35372 whole entry): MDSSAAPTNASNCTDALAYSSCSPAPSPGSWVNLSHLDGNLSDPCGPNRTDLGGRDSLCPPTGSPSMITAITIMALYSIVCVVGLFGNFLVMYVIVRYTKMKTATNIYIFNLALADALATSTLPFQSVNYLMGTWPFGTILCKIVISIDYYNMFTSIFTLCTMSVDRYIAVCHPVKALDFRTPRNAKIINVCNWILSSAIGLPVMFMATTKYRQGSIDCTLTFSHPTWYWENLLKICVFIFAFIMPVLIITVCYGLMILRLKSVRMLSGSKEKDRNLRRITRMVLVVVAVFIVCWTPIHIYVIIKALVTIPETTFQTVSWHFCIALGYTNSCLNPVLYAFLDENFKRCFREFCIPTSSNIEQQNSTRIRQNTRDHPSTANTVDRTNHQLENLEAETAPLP
Chain of Cytochrome P450 2D6 (P10635 whole entry): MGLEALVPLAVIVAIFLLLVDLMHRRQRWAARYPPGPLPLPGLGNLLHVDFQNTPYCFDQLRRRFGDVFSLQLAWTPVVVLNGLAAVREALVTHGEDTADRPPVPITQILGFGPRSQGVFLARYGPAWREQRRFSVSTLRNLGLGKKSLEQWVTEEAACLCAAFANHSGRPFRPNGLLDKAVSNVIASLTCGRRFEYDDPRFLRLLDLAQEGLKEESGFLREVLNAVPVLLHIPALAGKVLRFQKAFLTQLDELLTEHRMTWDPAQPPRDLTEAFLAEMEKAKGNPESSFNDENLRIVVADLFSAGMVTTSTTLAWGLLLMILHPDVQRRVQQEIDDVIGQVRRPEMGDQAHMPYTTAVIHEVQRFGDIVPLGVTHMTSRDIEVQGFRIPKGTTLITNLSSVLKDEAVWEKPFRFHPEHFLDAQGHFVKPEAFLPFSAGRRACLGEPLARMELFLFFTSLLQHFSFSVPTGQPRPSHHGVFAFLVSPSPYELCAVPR
Chain of Cytochrome P450 2C9 (P11712 whole entry): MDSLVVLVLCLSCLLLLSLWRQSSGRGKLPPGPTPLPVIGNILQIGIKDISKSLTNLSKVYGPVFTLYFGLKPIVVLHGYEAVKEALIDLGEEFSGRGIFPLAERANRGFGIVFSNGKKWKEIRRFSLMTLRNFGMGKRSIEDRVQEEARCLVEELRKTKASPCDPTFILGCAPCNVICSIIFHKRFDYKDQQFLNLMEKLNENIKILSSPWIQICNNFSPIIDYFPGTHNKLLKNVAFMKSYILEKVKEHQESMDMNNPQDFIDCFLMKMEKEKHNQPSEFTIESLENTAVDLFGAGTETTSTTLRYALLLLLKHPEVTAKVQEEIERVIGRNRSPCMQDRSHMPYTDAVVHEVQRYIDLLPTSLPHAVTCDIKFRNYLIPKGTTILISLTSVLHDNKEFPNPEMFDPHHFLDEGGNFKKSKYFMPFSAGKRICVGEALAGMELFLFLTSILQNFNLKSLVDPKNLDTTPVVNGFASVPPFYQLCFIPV

CCOC(=O)C1(CCCc2ccccc2)CCN(Cc2cnn(C)c2)CC1
EC50 [1]: 0.596 µM (active) | EC50 [2]: 43 µM (inactive) | EC50 [3]: > 92.5 µM (inactive) | EC50 [4]: > 92.5 µM (inactive)

CCn1cc(CNCc2cn(-c3ccccc3C)nc2-c2ccc(OC)c(F)c2)cn1
EC50 [1]: 1.33 µM (active) | EC50 [2]: 18.9 µM (inactive) | EC50 [3]: > 92.5 µM (inactive) | EC50 [4]: 34.7 µM (inactive)

OCCNC1=NCCN1
IC50 [5]: 1.95 µM (active) | IC50 [6]: 2.2 µM (active)

Cc1ccc2c(c1)C1CN(C)CCC1N2CC(=O)N(C)c1ccccc1 (stereo unspecified)
IC50 [5]: 9.94 µM (active) | IC50 [6]: 5.51 µM (active)

O=C(NC1CCCC1)c1cc(Cl)ccc1[N+](=O)[O-]
AC50 [7]: 0.948 µM (active)

N=C(N)SCCc1ccc(CCSC(=N)N)cc1
AC50 [8]: inconclusive | AC50 [9]: 31.6 µM (inconclusive)

COc1ccccc1OCCNC(=O)c1ccc(Br)cc1
AC50 [10]: 10.8 µM (active)

CN1C2CCC1/C(=C\c1ccccc1)C(=O)/C2=C\c1ccccc1
AC50 [11]: inconclusive | AC50 [8]: inconclusive | EC50 [12]: > 120 µM (not active) | EC50 [13]: > 120 µM (not active) | AC50 [14]: 10 µM (inconclusive) | AC50 [15]: 39.8 µM (inconclusive) | EC50 [16]: 6.92 µM (active) | AC50 [17]: 4.4 µM (active)

COc1ccccc1N=Nc1[nH]c2ccc(C)cc2c1O
IC50 [5]: 6.6 µM (active) | IC50 [6]: 6.59 µM (active)

CSC1=NC(=O)/C(=C/c2ccc(SC)cc2)S1
AC50 [7]: 16.2 µM (active)

CCN1CCN(c2ccc(S(=O)(=O)N3CCCCC3)cc2NC(=O)/C=C/c2ccc(OC(F)F)cc2)CC1
IC50 [5]: 7.32 µM (active) | IC50 [6]: 4.28 µM (active)

O=C(Nc1ccccc1)c1cc2ccccc2o1
IC50 [18]: 6.22 µM (active) | CC50 [19]: > 40 µM (active)

N#CC1C(C#N)C2CCC1C1C2N1c1ccccc1 (stereo unspecified)
AC50 [7]: 7.8 µM (active)

O=S(=O)(c1ccccc1)N1CCC2(CC1)CN(C(c1ccccc1)c1ccccc1)C2
AC50 [8]: inconclusive

CCOC(=O)N1CCN(C(=O)c2oc3ccc(S(=O)(=O)N4CCCCC4)cc3c2C)CC1
AC50 [8]: inconclusive | AC50 [9]: 20 µM (inconclusive) | AC50 [14]: 28.2 µM (inconclusive)

— ChEMBL document CHEMBL1201862, “PubChem BioAssay data set” (2004)
